The source of these data is ChEMBL document CHEMBL1131973, “Asymmetric synthesis of novel quaternary alpha-hydroxy-delta-lactam dipeptide surrogates” (Bioorg Med Chem Lett, 1999).

The assay deals with Prothrombin (Homo sapiens, UniProt P00734).

`N=C(N)N1CCC[C@H](NC(=O)CN2CCC[C@H](NS(=O)(=O)Cc3ccccc3)C2=O)C1O` (stereo partly drawn): the Ki (in general, the equilibrium dissociation constant of an inhibitor or competing ligand from its target) worked out at 1 nM.
In turn, `N=C(N)N1CCC[C@H](NC(=O)CN2CCC[C@@](N)(Cc3ccccc3)C2=O)C1O` (stereo partly drawn) gave an inhibition constant Ki of 1 nM. That is a single-digit nanomolar value.
In the case of `CCOC(=O)[C@]1(NS(=O)(=O)Cc2ccccc2)CCCN(CC(=O)N[C@H]2CCCN(C(=N)N)C2O)C1=O` (stereo partly drawn) it was 1 nM.
